Read-outs that look alike come from different tables or passages of the source.
Legend:
IKKε = IKKε (Homo sapiens (Human), UniProt Q14164); experiment: Lanthascreen TR-FRET kinase inhibition assay, IKKε; type: biochemical
In short: (§1)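 TR-FRET: terbium phosphospecific antibody detects phosphorylation of 400 nM fluorescein-IkBα peptide, 20 μM ATP, 20 °C, HEPES pH 7.5 with 3% DMSO. IKKε at 2 nM, 1 h reaction; TBK1 at 8 nM, 2.5 h reaction; started by kinase addition.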

TBK1 = TBK1 (Homo sapiens (Human), UniProt Q9UHD2); experiment: Lanthascreen TR-FRET kinase inhibition assay, TBK1; type: biochemical; conditions: 20 μM ATP (apparent Km), 8 nM kinase, 2.5 h
In short: as §1

[1] = 20 μM ATP (apparent Km), 2 nM kinase, 1 h

Sequence of IKKε (Q14164 whole entry): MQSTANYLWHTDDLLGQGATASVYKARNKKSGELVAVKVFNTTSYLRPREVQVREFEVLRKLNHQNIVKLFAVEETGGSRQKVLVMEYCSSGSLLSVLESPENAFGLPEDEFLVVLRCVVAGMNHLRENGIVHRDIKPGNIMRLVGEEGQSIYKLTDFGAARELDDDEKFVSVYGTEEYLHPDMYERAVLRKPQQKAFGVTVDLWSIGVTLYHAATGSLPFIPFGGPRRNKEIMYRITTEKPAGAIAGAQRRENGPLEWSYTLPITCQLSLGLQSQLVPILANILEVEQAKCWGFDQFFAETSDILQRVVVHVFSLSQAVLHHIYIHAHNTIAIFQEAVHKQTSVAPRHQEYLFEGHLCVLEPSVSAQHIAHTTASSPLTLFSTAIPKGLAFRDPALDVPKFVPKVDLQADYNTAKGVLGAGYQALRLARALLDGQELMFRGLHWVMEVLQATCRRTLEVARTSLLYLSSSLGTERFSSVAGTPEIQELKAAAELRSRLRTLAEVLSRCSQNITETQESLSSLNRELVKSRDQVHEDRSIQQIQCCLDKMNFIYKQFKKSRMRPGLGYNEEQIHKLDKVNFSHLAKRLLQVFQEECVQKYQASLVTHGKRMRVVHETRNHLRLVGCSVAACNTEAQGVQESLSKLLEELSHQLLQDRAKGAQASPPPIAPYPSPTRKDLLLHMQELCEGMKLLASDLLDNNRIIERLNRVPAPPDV
Sequence of TBK1 (Q9UHD2 whole entry): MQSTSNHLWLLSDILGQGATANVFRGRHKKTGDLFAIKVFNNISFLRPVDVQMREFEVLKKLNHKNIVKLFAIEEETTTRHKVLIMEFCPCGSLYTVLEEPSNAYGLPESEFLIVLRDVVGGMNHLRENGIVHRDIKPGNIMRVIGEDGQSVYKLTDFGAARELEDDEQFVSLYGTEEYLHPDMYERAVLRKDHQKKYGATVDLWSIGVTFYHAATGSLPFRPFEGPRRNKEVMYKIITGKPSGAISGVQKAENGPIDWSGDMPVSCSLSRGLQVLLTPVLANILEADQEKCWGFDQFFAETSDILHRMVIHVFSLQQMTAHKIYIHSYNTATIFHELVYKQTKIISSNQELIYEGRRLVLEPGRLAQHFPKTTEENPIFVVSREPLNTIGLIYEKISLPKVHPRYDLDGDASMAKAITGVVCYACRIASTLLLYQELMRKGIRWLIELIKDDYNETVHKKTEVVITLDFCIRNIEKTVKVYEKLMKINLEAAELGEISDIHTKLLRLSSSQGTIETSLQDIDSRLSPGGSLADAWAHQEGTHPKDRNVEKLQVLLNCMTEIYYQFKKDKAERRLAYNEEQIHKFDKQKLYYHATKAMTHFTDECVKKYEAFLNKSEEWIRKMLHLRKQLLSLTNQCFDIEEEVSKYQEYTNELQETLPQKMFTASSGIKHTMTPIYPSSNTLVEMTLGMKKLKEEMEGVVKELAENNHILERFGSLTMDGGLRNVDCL

| IC50 (IKKε; [1]) [nM] | IC50 (TBK1) [nM] | IC50 (IKKε) [nM] | Structure (SMILES) |
| --- | --- | --- | --- |
| < 100 | < 100 | – | N#Cc1nc(-c2ccnc(Nc3ccc(NC(=O)CN4CCOCC4)nc3)n2)ccc1N1CC[C@H](O)C1 [DMX-141, N-(5-{4-[6-Cyano-5-((S)-3-hydroxy-pyrrolidin-1-yl)-pyridin-2-yl]-pyrimidin-2-ylamino}-pyridin-2-yl)-2-morpholin-4-yl-acetamide] |
| < 100 | < 100 | – | COCCNCc1cncc(Nc2nccc(-c3cnc(N4CC[C@H](F)C4)c(C#N)c3)n2)c1 [DMX-106, 2-((S)-3-Fluoro-pyrrolidin-1-yl)-5-(2-{5-[(2-methoxy-ethylamino)-methyl]-pyridin-3-ylamino}-pyrimidin-4-yl)-nicotinonitrile] |
| < 1000 | < 1000 | – | N#Cc1cc(-c2ccnc(Nc3cccc(C(=O)NC4CCNCC4)c3)n2)cnc1N[C@@H]1CCOC1 [DMX-117, 3-(4-{5-Cyano-6-[(R)-(tetrahydro-furan-3-yl)amino]-pyridin-3-yl}-pyrimidin-2-ylamino)-N-piperidin-4-yl-benzamide] |
| < 100 | < 100 | – | N#Cc1nc(-c2ccnc(Nc3ccc(NC(=O)CN4CCOCC4)nc3)n2)ccc1N1CCCOCC1 [DMX-166, N-{5-[4-(6-Cyano-5-[1,4]oxazepan-4-yl-pyridin-2-yl)-pyrimidin-2-ylamino]-pyridin-2-yl)-2-morpholin-4-yl-acetamide] |
| < 15 | < 30 | – | N#Cc1cc(-c2ccnc(Nc3ccc(NC(=O)CN4CCOCC4)nc3)n2)cnc1N1CC[C@@H](F)C1 [DMX-112, N-(5-{4-[5-Cyano-6-((R)-3-fluoro-pyrrolidin-1-yl)-pyridin-3-yl]-pyrimidin-2-ylamino}-pyridin-2-yl)-2-morpholin-4-yl-acetamide] |
| < 30 | < 30 | – | COCCN(C)Cc1ccc(Nc2nccc(-c3ccc(N4CC[C@H](F)C4)c(C#N)n3)n2)cn1 [DMX-152, 3-((S)-3-Fluoro-pyrrolidin-1-yl)-6-[2-(6-{[(2-methoxy-ethyl)-methyl-amino]-methyl}-pyridin-3-ylamino)-pyrimidin-4-yl]-pyridine-2-carbonitrile] |
| < 30 | < 15 | – | CC(c1ccc(Nc2nccc(-c3cnc(N4CC[C@H](F)C4)c(C#N)c3)n2)cn1)N1CCOCC1 (stereo partly drawn) [DMX-96, 2-((S)-3-Fluoro-pyrrolidin-1-yl)-5-{2-[6-(1-morpholin-4-yl-ethyl)-pyridin-3-ylamino]-pyrimidin-4-yl}-nicotinonitrile] |
| < 30 | < 100 | – | N#Cc1cc(-c2ccnc(Nc3ccc(CN4CCOCC4)nc3)n2)cnc1N1CCC(CCC(N)=O)C1 (stereo not shown) [DMX-162, 3-(1-{3-Cyano-5-[2-(6-morpholin-4-ylmethyl-pyridin-3-ylamino)-pyrimidin-4-yl]-pyridin-2-yl}-pyrrolidin-3-yl)-propionamide] |
| < 30 | < 30 | – | N#Cc1cc(-c2ccnc(Nc3ccc(CN4CCOCC4)nc3)n2)cnc1N1CCCC1CC(N)=O (stereo not shown) [DMX-131, 2-(1-{3-Cyano-5-[2-(6-morpholin-4-ylmethyl-pyridin-3-ylamino)-pyrimidin-4-yl]-pyridin-2-yl}-pyrrolidin-2-yl)-acetamide] |
| < 30 | < 15 | – | N#Cc1cc(-c2nc(Nc3ccc(CN4CCOCC4)nc3)ncc2F)cnc1N1CC[C@H](F)C1 [DMX-89, 5-[5-Fluoro-2-(6-morpholin-4-ylmethyl-pyridin-3-ylamino)-pyrimidin-4-yl]-2-((S)-3-fluoro-pyrrolidin-1-yl)-nicotinonitrile] |
| < 100 | < 100 | – | N#Cc1cc(-c2ccnc(Nc3ccc(NC(=O)C4CC4)nc3)n2)cnc1N1CC[C@H](F)C1 [DMX-19, Cyclopropanecarboxylic acid (5-{4-[5-cyano-6-((S)-3-fluoro-pyrrolidin-1-yl)-pyridin-3-yl]-pyrimidin-2-ylamino}-pyridin-2-yl)-amide] |
| < 100 | < 100 | – | N#Cc1cc(-c2ccnc(Nc3ccnc(NC(=O)CN4CCOCC4)c3)n2)cnc1N1CCC2(COC2)C1 [DMX-93, N-(4-{4-[5-Cyano-6-(2-oxa-6-aza-spiro[3.4]oct-6-yl)-pyridin-3-yl]-pyrimidin-2-ylamino}-pyridin-2-yl)-2-morpholin-4-yl-acetamide] |
| < 100 | < 30 | – | COCCNCc1ccc(Nc2nccc(-c3ccc(N4CC[C@H](F)C4)c(C#N)n3)n2)cn1 [DMX-157, 3-((S)-3-Fluoro-pyrrolidin-1-yl)-6-(2-{6-[(2-methoxy-ethylamino)-methyl]-pyridin-3-ylamino}-pyrimidin-4-yl)-pyridine-2-carbonitrile] |
| < 15 | < 15 | – | N#Cc1cc(-c2ccnc(Nc3cn[nH]c3)n2)cnc1N1CC[C@H](F)C1 [DMX-63, 2-((S)-3-Fluoro-pyrrolidin-1-yl)-5-[2-(1H-pyrazol-4-ylamino)-pyrimidin-4-yl]-nicotinonitrile] |
| – | < 100 | < 30 | N#Cc1cc(-c2ccnc(Nc3ccc(NC(=O)CN4CC[C@H](O)C4)nc3)n2)cnc1N1CC[C@H](F)C1 [DMX-35, N-(5-{4-[5-Cyano-6-((S)-3-fluoro-pyrrolidin-1-yl)-pyridin-3-yl]-pyrimidin-2-ylamino}-pyridin-2-yl)-2-((S)-3-hydroxy-pyrrolidin-1-yl)-acetamide] |
| < 100 | < 30 | – | CO[C@H]1CCN(Cc2ccc(Nc3nccc(-c4cnc(N5CC[C@H](F)C5)c(C#N)c4)n3)cn2)C1 [DMX-97, 2-((S)-3-Fluoro-pyrrolidin-1-yl)-5-{2-[6-((S)-3-methoxy-pyrrolidin-1-ylmethyl)-pyridin-3-ylamino]-pyrimidin-4-yl}-nicotinonitrile] |
| < 30 | < 30 | – | CC(=O)Nc1ccc(Nc2nccc(-c3cnc(N4CC[C@H](F)C4)c(C#N)c3)n2)cn1 [DMX-8, N-(5-{4-[5-Cyano-6-((S)-3-fluoro-pyrrolidin-1-yl)-pyridin-3-yl]-pyrimidin-2-ylamino}-pyridin-2-yl)-acetamide] |
| < 30 | < 30 | – | N#Cc1cc(-c2ccnc(Nc3cncc(CN4CCOCC4)c3)n2)cnc1N1CC[C@H](F)C1 [DMX-100, 2-((S)-3-Fluoro-pyrrolidin-1-yl)-5-[2-(5-morpholin-4-ylmethyl-pyridin-3-ylamino)-pyrimidin-4-yl]-nicotinonitrile] |
| < 15 | < 15 | – | CC(C)C(Nc1ncc(-c2ccnc(Nc3ccc(CN4CCOCC4)nc3)n2)cc1C#N)C(N)=O (stereo not shown) [DMX-136, 2-{3-Cyano-5-[2-(6-morpholin-4-ylmethyl-pyridin-3-ylamino)-pyrimidin-4-yl]-pyridin-2-ylamino}-3-methyl-butyramide] |
| < 1000 | < 1000 | – | CN(CC1CCOC1)c1ncc(-c2ccnc(Nc3ccc(CN4CCOCC4)nc3)n2)cc1C#N (stereo not shown) [DMX-137, 2-[Methyl-(tetrahydro-furan-3-ylmethyl)-amino]-5-[2-(6-morpholin-4-ylmethyl-pyridin-3-ylamino)-pyrimidin-4-yl]-nicotinonitrile] |
| < 100 | < 100 | – | N#Cc1cc(-c2ccnc(Nc3ccc(CN4CCOCC4)nc3)n2)cnc1N1CCC(CC(N)=O)C1 (stereo not shown) [DMX-158, 2-(1-{3-Cyano-5-[2-(6-morpholin-4-ylmethyl-pyridin-3-ylamino)-pyrimidin-4-yl]-pyridin-2-yl}-pyrrolidin-3-yl)-acetamide] |
| < 100 | < 100 | – | Cn1cc(Nc2nccc(-c3ccc(N4CC[C@H](O)C4)c(C#N)n3)n2)cn1 [DMX-59, 3-((S)-3-Hydroxy-pyrrolidin-1-yl)-6-[2-(1-methyl-1H-pyrazol-4-ylamino)-pyrimidin-4-yl]-pyridine-2-carbonitrile] |
| < 15 | < 15 | – | CN1Cc2ccc(Nc3nccc(-c4cnc(N5CC[C@H](F)C5)c(C#N)c4)n3)cc2C1 [DMX-76, 2-((S)-3-Fluoro-pyrrolidin-1-yl)-5-[2-(2-methyl-2,3-dihydro-1H-isoindol-5-ylamino)-pyrimidin-4-yl]-nicotinonitrile] |
| < 100 | < 100 | – | N#Cc1cc(-c2nc(Nc3ccc(CN4CCOCC4)nc3)ncc2F)cnc1N1CCCOCC1 [DMX-87, 5-[5-Fluoro-2-(6-morpholin-4-ylmethyl-pyridin-3-ylamino)-pyrimidin-4-yl]-2-[1,4]oxazepan-4-yl-nicotinonitrile] |
| < 1000 | < 100 | – | N#Cc1cc(-c2nc(Nc3ccnc(NC(=O)CN4CCOCC4)c3)ncc2F)cnc1N1CCCOCC1 [DMX-94, N-{4-[4-(5-Cyano-6-[1,4]oxazepan-4-yl-pyridin-3-yl)-5-fluoro-pyrimidin-2-ylamino]-pyridin-2-yl}-2-morpholin-4-yl-acetamide] |
| < 30 | < 30 | – | Cn1cc(Nc2nccc(-c3cnc(N4CC[C@H](F)C4)c(C#N)c3)n2)cn1 [DMX-7, 2-((S)-3-Fluoro-pyrrolidin-1-yl)-5-[2-(1-methyl-1H-pyrazol-4-ylamino)-pyrimidin-4-yl]-nicotinonitrile] |
| < 1000 | < 1000 | – | CC1CN(c2ncc(-c3ccnc(Nc4ccc(CN5CCOCC5)nc4)n3)cc2C#N)CCO1 (stereo not shown) [DMX-159, 2-(2-Methyl-morpholin-4-yl)-5-[2-(6-morpholin-4-ylmethyl-pyridin-3-ylamino)-pyrimidin-4-yl]-nicotinonitrile] |
| < 1000 | < 1000 | – | Cn1cc(Nc2nccc(-c3cnc(N[C@@H]4CCOC4)c(C#N)c3)n2)cn1 [DMX-116, 5-[2-(1-Methyl-1H-pyrazol-4-ylamino)-pyrimidin-4-yl]-2-[(R)-(tetrahydro-furan-3-yl)amino]-nicotinonitrile] |
| < 30 | < 30 | – | N#Cc1nc(-c2ccnc(Nc3ccc(NC(=O)CN4CC[C@H](F)C4)nc3)n2)ccc1N1CC[C@H](F)C1 [DMX-145, N-(5-{4-[6-Cyano-5-((S)-3-fluoro-pyrrolidin-1-yl)-pyridin-2-yl]-pyrimidin-2-ylamino}-pyridin-2-yl)-2-((S)-3-fluoro-pyrrolidin-1-yl)-acetamide] |

Source: patent publication US9433622B2, “Pyrimidine compounds useful in the treatment of diseases mediated by IKKE and/or TBK1 mechanisms” (DOMAINEX LIMITED, priority 2013, dated 2016)
